Among the data in patent publication US12344595B2, “2-amino-n-phenyl-nicotinamides as NAV1.8 inhibitors” (Merck Sharp & Dohme LLC, priority 2018, dated 2025) are IC50 values, retold here.

Structures are written as SMILES.

Sequence of human Nav1.8 (Q9Y5Y9 whole entry): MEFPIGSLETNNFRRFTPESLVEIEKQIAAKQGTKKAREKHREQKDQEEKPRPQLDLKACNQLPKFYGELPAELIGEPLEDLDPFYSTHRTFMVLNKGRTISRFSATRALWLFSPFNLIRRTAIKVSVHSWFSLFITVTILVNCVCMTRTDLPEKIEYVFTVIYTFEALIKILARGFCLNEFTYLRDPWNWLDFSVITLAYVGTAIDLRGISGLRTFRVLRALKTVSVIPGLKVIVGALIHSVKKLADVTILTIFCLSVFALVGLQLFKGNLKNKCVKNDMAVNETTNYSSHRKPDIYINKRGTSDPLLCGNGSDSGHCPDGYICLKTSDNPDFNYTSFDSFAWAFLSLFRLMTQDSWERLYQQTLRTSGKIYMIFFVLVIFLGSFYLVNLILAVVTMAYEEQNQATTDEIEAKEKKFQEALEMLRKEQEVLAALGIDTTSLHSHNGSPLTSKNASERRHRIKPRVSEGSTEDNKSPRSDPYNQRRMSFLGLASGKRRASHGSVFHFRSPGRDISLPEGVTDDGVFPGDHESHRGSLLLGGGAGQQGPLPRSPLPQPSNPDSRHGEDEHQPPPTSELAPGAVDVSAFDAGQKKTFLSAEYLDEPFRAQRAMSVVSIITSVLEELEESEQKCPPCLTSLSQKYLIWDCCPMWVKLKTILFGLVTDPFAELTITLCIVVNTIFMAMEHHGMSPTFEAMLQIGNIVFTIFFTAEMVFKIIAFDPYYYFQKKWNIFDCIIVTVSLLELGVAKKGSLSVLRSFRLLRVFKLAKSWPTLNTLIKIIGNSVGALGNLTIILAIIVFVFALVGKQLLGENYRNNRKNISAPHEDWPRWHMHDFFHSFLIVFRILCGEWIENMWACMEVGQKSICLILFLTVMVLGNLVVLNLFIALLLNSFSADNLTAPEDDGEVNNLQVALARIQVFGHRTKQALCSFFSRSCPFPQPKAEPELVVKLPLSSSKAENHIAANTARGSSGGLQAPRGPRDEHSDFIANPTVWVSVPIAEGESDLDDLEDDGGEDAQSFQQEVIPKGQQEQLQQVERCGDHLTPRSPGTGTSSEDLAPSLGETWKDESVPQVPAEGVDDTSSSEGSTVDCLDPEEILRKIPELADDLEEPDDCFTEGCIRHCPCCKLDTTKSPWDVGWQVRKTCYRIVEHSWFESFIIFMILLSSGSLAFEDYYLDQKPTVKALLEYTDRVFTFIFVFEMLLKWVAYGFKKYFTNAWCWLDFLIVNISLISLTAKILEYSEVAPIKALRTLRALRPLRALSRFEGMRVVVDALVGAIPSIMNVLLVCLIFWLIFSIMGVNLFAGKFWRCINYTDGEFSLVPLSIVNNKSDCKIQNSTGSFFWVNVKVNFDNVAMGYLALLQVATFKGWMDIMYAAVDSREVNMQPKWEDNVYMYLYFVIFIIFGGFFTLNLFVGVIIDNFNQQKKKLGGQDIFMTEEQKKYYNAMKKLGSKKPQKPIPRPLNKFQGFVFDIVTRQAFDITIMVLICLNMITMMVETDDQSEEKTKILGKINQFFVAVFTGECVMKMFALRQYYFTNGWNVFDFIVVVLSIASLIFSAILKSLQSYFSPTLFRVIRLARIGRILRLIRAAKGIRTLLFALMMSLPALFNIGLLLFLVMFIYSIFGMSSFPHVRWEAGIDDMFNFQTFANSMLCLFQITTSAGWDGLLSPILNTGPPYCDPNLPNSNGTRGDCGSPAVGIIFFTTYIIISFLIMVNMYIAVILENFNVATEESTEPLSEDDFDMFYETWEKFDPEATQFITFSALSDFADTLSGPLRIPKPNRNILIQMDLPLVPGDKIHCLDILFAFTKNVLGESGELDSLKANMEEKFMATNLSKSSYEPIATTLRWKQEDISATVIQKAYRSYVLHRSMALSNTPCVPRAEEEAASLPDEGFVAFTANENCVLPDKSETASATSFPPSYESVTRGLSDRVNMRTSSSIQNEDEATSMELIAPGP

In this test the target is human Nav1.8 (Homo sapiens (Human), UniProt Q9Y5Y9). Put plainly: Nav1.8 Qube automated patch-clamp assay. The class given is cell-based. As to conditions: Nav1.8 Qube Assay; human Nav1.8 channels stably expressed in HEK 293 cells. As for the experimental part:
Qube® Assay Experimental Procedure
Compounds were tested on human Nav1.8 and Nav1.5 channels stably expressed in human embryo kidney (HEK) 293 cells. Sodium current measurements on Qube® were conducted as follows: automated 384-well patch-clamp assays on the Qube® platform (Sophion Biosciences) were used to measure the inhibition of sodium flow through human Nav1.8 and Nav1.5 channels. Whole-cell voltage-clamp recordings were performed in QChips® (Sophion Biosciences) at room temperature. Nav1.8 current measurements on Qube® were obtained as follows: Nav1.8 currents were elicited with a 10 second 1 Hertz (Hz) pulse train from a holding potential of −90 millivolts (mV), delivered to the cells once per minute in the control condition (DMSO only) and after compound addition. The 1 hertz pulse train stimulation consisted of ten test pulses to 10 millivolt (mV) for 20 milliseconds (ms), each of which was followed by a 980 millisecond repolarization to −67 millivolts. At the end of the 10 second pulse train stimulation, a 5 second hyperpolarization step to −100 millivolt (mV) was used to recover Nav1.8 from fast inactivation. The peak currents elicited by the 1st and 10th test pulses were used to determine IC50 values for resting inhibition and inactivated state inhibition. Nav1.5 current measurements on Qube® were obtained as follows: Nav1.5 currents were elicited with a 20 second 3 Hertz pulse train in the control condition (DMSO only) and after compound addition. The pulse train consisted of sixty 20 millisecond test pulses to 0 millivolt from a holding potential of −80 millivolt (mV). The average peak currents elicited by the last 3 test pulses were used to determine IC50 values for Nav1.5 inhibition.
The following buffers were used for the Qube® recordings: External buffer for Nav1.8 Qube® recording: 150 NaCl, 2 CaCl2, 5 KCl, 1 Mg Cl2, 10 HEPES, 12 Dextrose; External buffer for Qube® Nav1.5 recording: 120 N-Methyl-D-Glucamine, 40 NaCl, 1 KCl, 2.7 CaCl2, 5 HEPES, 0.5 MgCl2; and Internal buffer for Qube® recording: 120 CsF, 30 CsCl, 10 EGTA, 5 HEPES, 5 NaF, 2 MgCl2.
For all Qube® experiments offline analysis was used to determine percent inhibition as a function of drug concentration. IC50 values were determined by fitting to the Hill equation.
A general note: Patch clamp records ionic current or voltage across a cell membrane.
Regarding `NS(=O)(=O)c1cccc(NC(=O)c2cc(C(F)(F)F)cnc2N2CC3CCC(C3)C2)c1` (racemic) [Example 45, 2-[rac-3-azabicyclo[3.2.1]octan-3-yl]-N-(3-sulfamoyl-phenyl)-5-(trifluoro-methyl)pyridine-3-carboxamide], the midpoint of inhibition, the IC50, lay at 12 nM. The figure for `CN1C2CCC1CN(c1ncc(C(F)(F)F)cc1C(=O)Nc1cccc(S(N)(=O)=O)c1)C2` (racemic) [Example 71, 2-[rac-(1S,5R and 1R,5S)-8-methyl-3,8-diazabicyclo[3.2.1]-octan-3-yl]-N-(3-sulfamoylphenyl)-5-(trifluoromethyl) pyridine-3-carboxamide] is 5550 nM; for `CC1CN(c2ncc(C(F)(F)F)cc2C(=O)Nc2ccc3c(c2)S(=O)(=O)NC3)CCC1(F)F` (single isomer, unassigned) [Example 112, 2-[(3R or 3S)-4,4-difluoro-3-methyl-1-piperidyl]-N-(1,1-dioxo-2,3-dihydro-1,2-benzothiazol-6-yl)-5-(trifluoromethyl) pyridine-3-carboxamide] it is 72 nM. The figure for `CC1CN(c2ncc(C(F)(F)F)cc2C(=O)Nc2ccc3c(c2)S(=O)(=O)NC3)CCC1(F)F` (single isomer, unassigned) [Example 113, 2-[(3S or 3R)-4,4-difluoro-3-methyl-1-piperidyl]-N-(1,1-dioxo-2,3-dihydro-1,2-benzothiazol-6-yl)-5-(trifluoromethyl) pyridine-3-carboxamide] is 73 nM; for `CC1CN(c2ncc(C(F)(F)F)cc2C(=O)Nc2cccc(S(N)(=O)=O)c2)CCC1(F)F` (single isomer, unassigned) [Example 123, (R or S)-2-(4,4-Difluoro-3-methylpiperidin-1-yl)-N-(3-sulfamoylphenyl)-5-(trifluoromethyl)nicotinamide] it is 3 nM; for `CC1CN(c2ncc(C(F)(F)F)cc2C(=O)Nc2cccc(S(N)(=O)=O)c2)CCC1(F)F` (single isomer, unassigned) [Example 124, (S or R)-2-(4,4-difluoro-3-methylpiperidin-1-yl)-N-(3-sulfamoylphenyl)-5-(trifluoromethyl)nicotinamide] it is 15 nM. The figure for `NS(=O)(=O)c1cccc(NC(=O)c2cc(C(F)(F)F)cnc2N2CCCC3(C2)CC3(F)F)c1` (single isomer, unassigned) [Example 126, 2-[(3S or 3R)-2,2-difluoro-5-azaspiro[2.5]-octan-5-yl]-N-(3-sulfamoylphenyl)-5-(trifluoromethyl)-pyridine-3-carboxamide] is 14 nM; for `NS(=O)(=O)c1cccc(NC(=O)c2cc(C(F)(F)F)cnc2N2CCCC3(C2)CC3(F)F)c1` (single isomer, unassigned) [Example 127, 2-[(3R or 3S)-2,2-difluoro-5-azaspiro[2.5]-octan-5-yl]-N-(3-sulfamoylphenyl)-5-(trifluoromethyl)-pyridine-3-carboxamide] it is 110 nM; for `CC12CCN(c3ncc(C(F)(F)F)cc3C(=O)Nc3cccc(S(N)(=O)=O)c3)CC1C2(F)F` (single isomer, unassigned) [Example 128, 2-[(1R,6R or 1S,6S)-7,7-difluoro-6-methyl-3-azabicyclo[4.1.0]heptan-3-yl]-N-(3-sulfamoyl-phenyl)-5-(trifluoro-methyl)-pyridine-3-carboxamide] it is 14 nM. Turning to `CC12CCN(c3ncc(C(F)(F)F)cc3C(=O)Nc3cccc(S(N)(=O)=O)c3)CC1C2(F)F` (single isomer, unassigned) [Example 129, 2-[(1S,6S or 1R,6R)-7,7-difluoro-6-methyl-3-azabicyclo[4.1.0]heptan-3-yl]-N-(3-sulfamoyl-phenyl)-5-(trifluoro-methyl)pyridine-3-carboxamide], it took 63 nM to reach half-maximal inhibition (IC50). For `NS(=O)(=O)c1cccc(NC(=O)c2cc(C(F)(F)F)cnc2N2CC3CCC3(C(F)(F)F)C2)c1` (single isomer, unassigned) [Example 130, N-(3-sulfamoylphenyl)-5-(trifluoromethyl)-2-[(1R,5R or 1S,5S)-1-(trifluoromethyl)-3-azabicyclo[3.2.0]heptan-3-yl]pyridine-3-carboxamide], the IC50 – broadly, the concentration at which inhibition is half-maximal – came to 16 nM.

Compound `NS(=O)(=O)c1cccc(NC(=O)c2cc(C(F)(F)F)cnc2N2CC3CCC3(C(F)(F)F)C2)c1` (single isomer, unassigned) [Example 131, N-(3-sulfamoylphenyl)-5-(trifluoromethyl)-2-[(1S,5S or 1R,5R)-1-(trifluoromethyl)-3-azabicyclo[3.2.0]heptan-3-yl]pyridine-3-carboxamide] came in with an IC50 of 113 nM. The result for `NS(=O)(=O)c1cccc(NC(=O)c2cc(C(F)(F)F)cnc2N2CC3CC(F)(F)C3C2)c1` (single isomer, unassigned) [Example 135, 2-[(1S,5R or 1R,5S)-6,6-difluoro-3-azabicyclo[3.2.0]heptan-3-yl]-N-(3-sulfamoyl-phenyl)-5-(trifluoro-methyl)pyridine-3-carboxamide] reads 37 nM. Take `NS(=O)(=O)c1cccc(NC(=O)c2cc(C(F)(F)F)cnc2N2CC3CC(F)(F)C3C2)c1` (single isomer, unassigned) [Example 136, 2-[(1R,5S or 1S,5R)-6,6-difluoro-3-azabicyclo[3.2.0]heptan-3-yl]-N-(3-sulfamoyl-phenyl)-5-(trifluoromethyl)-pyridine-3-carboxamide]: the IC50 came out at 87 nM. This IC50 is about 2.4-fold higher than that of the compound before.

`NS(=O)(=O)c1cccc(NC(=O)c2cc(C(F)(F)F)cnc2N2CC3CC2CC3(F)F)c1` (single isomer, unassigned) [Example 137, 2-[(1S,4S or 1R,4R)-5,5-difluoro-2-azabicyclo-[2.2.1]heptan-2-yl]-N-(3-sulfamoylphenyl)-5-(trifluoromethyl)-pyridine-3-carboxamide] displayed an IC50 of 82 nM.

In the case of `NS(=O)(=O)c1cccc(NC(=O)c2cc(C(F)(F)F)cnc2N2CC3CC2CC3(F)F)c1` (single isomer, unassigned) [Example 138, 2-[(1R,4R or 1S,4S)-5,5-difluoro-2-azabicyclo-[2.2.1]heptan-2-yl]-N-(3-sulfamoylphenyl)-5-(trifluoromethyl)-pyridine-3-carboxamide], the IC50 came to 881 nM.

`CC1CN(c2ncc(C(F)(F)F)cc2C(=O)Nc2cccc(S(N)(=O)=O)c2)CC(C)O1` (single isomer, unassigned) [Example 149, 2-[(2R,6S or 2S,6R)-2,6-dimethylmorpholin-4-yl]-N-(3-sulfamoylphenyl)-5-(trifluoromethyl) pyridine-3-carboxamide]: inhibition was half-maximal at 351 nM (IC50). The figure for `CC1CN(c2ncc(C(F)(F)F)cc2C(=O)Nc2cccc(S(N)(=O)=O)c2)CC(C)O1` (single isomer, unassigned) [Example 150, 2-[(2S,6S or 2R,6R)-2,6-dimethylmorpholin-4-yl]-N-(3-sulfamoylphenyl)-5-(trifluoromethyl) pyridine-3-carboxamide] is 414 nM. The result for `NS(=O)(=O)c1cccc(NC(=O)c2cc(C(F)(F)F)cnc2N2CCC(F)(F)CC2)c1` [Example 1, 2-(4,4-difluoropiperidin-1-yl)-N-(3-sulfamoylphenyl)-5-(trifluoromethyl)nicotinamide] reads 47 nM; that for `Cc1nc(N2CCCCCC2)c(C(=O)Nc2cccc(S(N)(=O)=O)c2)c(C)c1Cl` [Example 2, 2-(azepan-1-yl)-5-chloro-4,6-dimethyl-N-(3-sulfamoylphenyl)nicotinamide], 0.7 nM. Take `Cc1c(F)c(Cl)nc(N2CCCCCC2)c1C(=O)Nc1cccc(S(N)(=O)=O)c1` [Example 3, 2-(azepan-1-yl)-6-chloro-5-fluoro-4-methyl-N-(3-sulfamoyl-phenyl)pyridine-3-carboxamide]: inhibition was half-maximal at 7.6 nM (IC50). Against the preceding compound, the IC50 is about 11-fold higher.

In the case of `Cc1cc(C)c(C(=O)Nc2cccc(S(N)(=O)=O)c2)c(N2CCCCCC2)n1` [Example 4, 2-(azepan-1-yl)-4,6-dimethyl-N-(3-sulfamoyl-phenyl)pyridine-3-carboxamide], the IC50 was found to be 14 nM. `NS(=O)(=O)c1cccc(NC(=O)c2cc(F)cnc2N2CCCCC2)c1` [Example 6, 5-fluoro-2-(1-piperidyl)-N-(3-sulfamoyl-phenyl)pyridine-3-carboxamide]: 8320 nM corresponded to half-maximal inhibition (IC50). Compared with the last compound, the IC50 is about 590-fold higher.

`Cc1nc(N2CCCCCC2)c(C(=O)Nc2cccc(S(C)(=O)=O)c2)c(C)c1Cl` [Example 7, 2-(azepan-1-yl)-5-chloro-4,6-dimethyl-N-(3-methylsulfonyl-phenyl)pyridine-3-carboxamide]: the IC50 was found to be 3.5 nM.

`Cc1cc(Cl)nc(N2CCCC(F)(F)CC2)c1C(=O)Nc1cccc(S(C)(=O)=O)c1` [Example 8, 6-chloro-2-(4,4-difluoroazepan-1-yl)-4-methyl-N-(3-methyl-sulfonylphenyl)pyridine-3-carboxamide] showed an IC50 of 5.8 nM. This IC50 is about 1.7-fold higher than that of the compound before.
